Results on 17 compounds are retold here after patent publication US7994168B2, “Hexahydro-pyrazino[1,2-A]pyrimidine-4,7-dione derivatives substituted with amino acids” (Sanofi-Aventis Deutschland GmbH, priority 2004, dated 2011).

By EC50 is commonly meant the midpoint of the concentration-response curve.

For assay [1], the target named is T1, MC4 (Homo sapiens, UniProt P32245).
T1 construct: expressed in transfected cells; host or cells: HEK293
The experiment in a line: In vitro functional assay with recombinant cells: agonist-induced changes in intracellular Ca2+ (FLIPR). It is filed as cell-based. Particulars: recombinant HEK293 cells expressing MC4 and G-protein α-16; Fluo-4 Ca2+ FLIPR; 100% = 100 nM reference agonist MTII. The protocol:
In Vitro Functional Assays with Recombinant Cells
Function-testing assays were carried out by determining the agonist-induced changes in the intracellular concentration of Ca^2+ in recombinant HEK293 cells which express both MC4 and G-protein α-16 by means of the FLIPR technique (“Fluorescence Imaging Plate Reader”, Molecular Devices Corp.).
For the investigations, cells were seeded into 96-well microtiter plates (50 000 cells/well) and allowed to grow overnight. The medium was removed and the cells were incubated in buffer which contained the fluorescent dye Fluo-4. After this loading with dye, the cells were washed, test substance was added, and changes in the intracellular Ca^2+ concentration were measured in the FLIPR apparatus. Results have been shown as percentage change relative to the control (0%: no test substance added; 100%: 100 nM reference agonist MTII added), and used to calculate dose/activity plots, with subsequent determination of EC50 values.

The subject of assay [2] is female NMRI mice. Put plainly: Anorectic effect: cumulative condensed milk consumption of fasted mice. Type of assay: in vivo. Particulars: oral dose 30 mg/kg by gavage after 24 hours food withdrawal, milk consumption determined for 7 hours, compared with vehicle-treated control animals. The procedure: The anorectic effect was tested on female NMRI mice. After withdrawal of food for 24 hours, the test product was administered by gavage. The animals were housed singly with free access to drinking water and were offered condensed milk 30 minutes after administration of the product. The condensed milk consumption was determined every half hour for 7 hours, and the general wellbeing of the animals was observed. The measured milk consumption was compared with the vehicle-treated control animals.

T1 sequence (P32245 whole entry): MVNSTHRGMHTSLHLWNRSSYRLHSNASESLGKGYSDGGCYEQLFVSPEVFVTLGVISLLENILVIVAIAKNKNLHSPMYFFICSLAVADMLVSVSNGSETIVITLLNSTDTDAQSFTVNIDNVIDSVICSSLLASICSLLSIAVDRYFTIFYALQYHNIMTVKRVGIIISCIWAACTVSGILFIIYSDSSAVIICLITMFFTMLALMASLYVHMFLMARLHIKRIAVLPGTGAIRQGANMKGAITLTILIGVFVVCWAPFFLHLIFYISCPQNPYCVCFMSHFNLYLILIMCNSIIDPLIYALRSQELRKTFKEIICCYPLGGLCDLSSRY

Regarding `CC(C)C(N)C(=O)N1CCCC1C(=O)NC1CN(S(=O)(=O)c2ccc(Cl)cc2Cl)C2CN(C(C)C)C(=O)C(Cc3ccc(Cl)cc3)N2C1=O` (stereo not drawn) [Example 1, N-[6-(4-Chlorobenzyl)-1-(2,4-dichlorobenzenesulfonyl)-8-isopropyl-4,7-dioxooctahydropyrazino[1,2-a]pyrimidin-3-yl]-1-(2-amino-3-methylbutyryl)pyrrolidin-2-carboxamide], in assay [1], the EC50 was 0.4 nM. Moreover, the “Reduction in the cumulative milk consumption as % of the control” value in assay [2] worked out at 8%. In the case of `CC(C)N1CC2N(C(=O)C(NC(=O)C3CCCN3C(=O)CN)CN2S(=O)(=O)c2ccc(Cl)cc2Cl)C(Cc2ccc(Cl)cc2)C1=O` (stereo not drawn) [Example 2, N-[6-(4-Chlorobenzyl)-1-(2,4-dichlorobenzenesulfonyl)-8-isopropyl-4,7-dioxooctahydropyrazino[1,2-a]pyrimidin-3-yl]-1-(2-aminoacetyl)pyrrolidine-2-carboxamide], in assay [1], the EC50 was 0.6 nM. In the case of `CC(N)C(=O)N1CCCC1C(=O)NC1CN(S(=O)(=O)c2ccc(Cl)cc2Cl)C2CN(C(C)C)C(=O)C(Cc3ccc(Cl)cc3)N2C1=O` (stereo not drawn) [Example 3, N-[6-(4-Chlorobenzyl)-1-(2,4-dichlorobenzenesulfonyl)-8-isopropyl-4,7-dioxooctahydropyrazino[1,2-a]pyrimidin-3-yl]-1-(2-aminopropionyl)pyrrolidine-2-carboxamide], the EC50 in assay [1] came out at 0.2 nM.

For the compound `CC(C)CC(N)C(=O)N1CCCC1C(=O)NC1CN(S(=O)(=O)c2ccc(Cl)cc2Cl)C2CN(C(C)C)C(=O)C(Cc3ccc(Cl)cc3)N2C1=O` (stereo not drawn) [Example 4, N-[6-(4-Chlorobenzyl)-1-(2,4-dichlorobenzenesulfonyl)-8-isopropyl-4,7-dioxooctahydropyrazino[1,2-a]pyrimidin-3-yl]-1-(2-amino-4-methylpentanoyl)pyrrolidine-2-carboxamide], the EC50 in assay [1] was found to be 0.4 nM.

On to `CC(C)C(C(=O)N1CCCC1C(=O)NC1CN(S(=O)(=O)c2ccc(Cl)cc2Cl)C2CN(C(C)C)C(=O)C(Cc3ccc(Cl)cc3)N2C1=O)N(C)C` (stereo not drawn) [Example 5, N-[6-(4-Chlorobenzyl)-1-(2,4-dichlorobenzenesulfonyl)-8-isopropyl-4,7-dioxooctahydropyrazino[1,2-a]pyrimidin-3-yl]-1-(2-dimethylamino-3-methylbutyryl)pyrrolidine-2-carboxamide], for which the EC50 in assay [1] came out at 2 nM. As to `CC(C)C(N)C(=O)N1CCCC1C(=O)NC1CN(S(=O)(=O)c2cc(F)ccc2Cl)C2CN(C(C)C)C(=O)C(Cc3ccc(Cl)cc3)N2C1=O` (stereo not drawn) [Example 6, N-[6-(4-Chlorobenzyl)-1-(2-chloro-5-fluorobenzenesulfonyl)-8-isopropyl-4,7-dioxooctahydropyrazino[1,2-a]pyrimidin-3-yl]-1-(2-amino-3-methylbutyryl)pyrrolidine-2-carboxamide], the EC50 in assay [1] was found to be 3.2 nM. Regarding `CC(C)C(N)C(=O)N1CCCC1C(=O)NC1CN(S(=O)(=O)c2ccc(OC(F)(F)F)cc2Cl)C2CN(C(C)C)C(=O)C(Cc3ccc(Cl)cc3)N2C1=O` (stereo not drawn) [Example 7, N-[6-(4-Chlorobenzyl)-1-(2-chloro-4-trifluoromethoxybenzene-sulfonyl)-8-isopropyl-4,7-dioxooctahydropyrazino[1,2-a]-pyrimidin-3-yl]-1-(2-amino-3-methylbutyryl)pyrrolidine-2-carboxamide], the EC50 in assay [1] came to 2.6 nM. Still for that read-out and setting: with `CC(C)C(N)C(=O)N1CCCC1C(=O)NC1CN(S(=O)(=O)c2ccc(Cl)cc2F)C2CN(C(C)C)C(=O)C(Cc3ccc(Cl)cc3)N2C1=O` (stereo not drawn) [Example 8, N-[6-(4-Chlorobenzyl)-1-(4-chloro-2-fluorobenzenesulfonyl)-8-isopropyl-4,7-dioxooctahydropyrazino[1,2-a]pyrimidin-3-yl]-1-(2-amino-3-methylbutyryl)pyrrolidine-2-carboxamide] the figure was 2.4 nM. On to `CC(C)C(N)C(=O)N1CCCC1C(=O)NC1CN(S(=O)(=O)c2ccc(Cl)cc2Cl)C2CN(C(C)C)C(=O)C(Cc3ccc(F)c(F)c3)N2C1=O` (stereo not drawn) [Example 9, N-[1-(2,4-Dichlorobenzenesulfonyl)-6-(3,4-difluorobenzyl)-8-isopropyl-4,7-dioxooctahydropyrazino[1,2-a]pyrimidin-3-yl]-1-(2-amino-3-methylbutyryl)pyrrolidine-2-carboxamide], for which the EC50 in assay [1] amounted to 1.5 nM. The same measure, in the same setting: with `CC(C)C(N)C(=O)N1CCCC1C(=O)NC1CN(S(=O)(=O)c2ccc(Cl)cc2Cl)C2CN(C(C)C)C(=O)C(Cc3ccc(F)cc3F)N2C1=O` (stereo not drawn) [Example 10, N-[1-(2,4-Dichlorobenzenesulfonyl)-6-(2,4-difluorobenzyl)-8-isopropyl-4,7-dioxooctahydropyrazino[1,2-a]pyrimidin-3-yl]-1-(2-amino-3-methylbutyryl)pyrrolidine-2-carboxamide] the figure was 5.7 nM; with `CC(C)C(N)C(=O)N1CCCC1C(=O)NC1CN(S(=O)(=O)c2ccc(Cl)cc2Cl)C2CN(CC(F)F)C(=O)C(Cc3ccc(Cl)cc3)N2C1=O` (stereo not drawn) [Example 11, N-[6-(4-Chlorobenzyl)-1-(2,4-dichlorobenzenesulfonyl)-8-(2,2-difluoroethyl)-4,7-dioxooctahydropyrazino[1,2-a]pyrimidin-3-yl]-1-(2-amino-3-methylbutyryl)pyrrolidine-2-carboxamide], 0.6 nM; with `CCN1CC2N(C(=O)C(NC(=O)C3CCCN3C(=O)C(N)C(C)C)CN2S(=O)(=O)c2ccc(Cl)cc2Cl)C(Cc2ccc(Cl)cc2)C1=O` (stereo not drawn) [Example 12, N-[6-(4-Chlorobenzyl)-1-(2,4-dichlorobenzenesulfonyl)-8-ethyl-4,7-dioxooctahydropyrazino[1,2-a]pyrimidin-3-yl]-1-(2-amino-3-methylbutyryl)pyrrolidine-2-carboxamide], 0.6 nM. Still for that read-out and setting: with `CC(C)C(N)C(=O)N1CCCC1C(=O)NC1CN(S(=O)(=O)c2ccc(Cl)cc2Cl)C2CN(C)C(=O)C(Cc3ccc(Cl)cc3)N2C1=O` (stereo not drawn) [Example 13] the figure was 4.7 nM; with `CCN1C[C@H]2N(C(=O)C(NC(=O)C3CCCN3C(=O)C(N)C(C)C)CN2S(=O)(=O)c2ccc(Cl)cc2Cl)[C@@H](Cc2ccc(F)c(F)c2)C1=O` (stereo partly drawn) [Example 14, N-[1-(2,4-dichlorobenzenesulfonyl)-6-(3,4-difluorobenzyl)-8-ethyl-4,7-dioxooctahydropyrazino[1,2-a]pyrimidin-3-yl]-1-(2-amino-3-methylbutryl)pyrrolidine-2-carboxamide], 1.6 nM; with `CC(C)C(N)C(=O)N1CCCC1C(=O)NC1CN(S(=O)(=O)c2ccc(Cl)cc2Cl)C2CN(C)C(=O)C(Cc3ccc(F)c(F)c3)N2C1=O` (stereo not drawn) [Example 15, N-[1-(2,4-Dichlorobenzenesulfonyl)-6-(3,4-difluorobenzyl)-8-methyl-4,7-dioxooctahydropyrazino[1,2-a]pyrimidin-3-yl]-1-(2-amino-3-methylbutyryl)pyrrolidine-2-carboxamide], 30.8 nM.

`CC(C)C(N)C(=O)N1CCCC1C(=O)NC1CN(S(=O)(=O)c2ccc(Cl)cc2Cl)C2CN(C(C)C)C(=O)C(Cc3cccnc3)N2C1=O` (stereo not drawn) [Example 16, N-[1-(2,4-Dichlorobenzenesulfonyl)-8-isopropyl-4,7-dioxo-6-pyridin-3-ylmethyloctahydropyrazino[1,2-a]pyrimidin-3-yl]-1-(2-amino-3-methylbutyryl)pyrrolidine-2-carboxamide]: in assay [1], the EC50 came to 717 nM. On the same count and under the same terms, to `CC(C)C(N)C(=O)N1CCCC1C(=O)NC1CN(S(=O)(=O)c2ccc(Cl)cc2Cl)C2CN(C3CC3)C(=O)C(Cc3cccnc3)N2C1=O` (stereo not drawn) [Example 17, N-[8-Cyclopropyl-1-(2,4-dichlorobenzenesulfonyl)-4,7-dioxo-6-pyridin-3-ylmethyloctahydropyrazino[1,2-a]pyrimidin-3-yl]-1-(2-amino-3-methylbutyryl)pyrrolidine-2-carboxamide] belongs 3490 nM.
